Data set [1] can be described thus: Clearance in Sprague-Dawley rat at 50 mg/kg, po up to 12 hrs by LC/MS analysis. The following applies: in vivo. Format: ADME, organism-based.
Data set [2] is described as follows: Toxicity in cyclophosphamide - induced Sprague-Dawley rat model of partial androgen deficiency assessed as effect on kidney at 50 to 100 mg/kg by HE staining based histopathological analysis. Format: organism-based. The note with it: in vivo.
Data set [3] deals with Rattus norvegicus. The data set can be described thus: Anti late-onset hypogonadism activity in cyclophosphamide-induced Sprague-Dawley rat model of partial androgen deficiency assessed as increase in StAR mRNA level at 50 to 100 mg/kg by RT-PCR analysis. Format: functional, organism-based.
A short description of data set [4]: Mean residence time in Sprague-Dawley rat at 50 mg/kg, po by LC/MS analysis. Format: ADME, organism-based. The following applies: in vivo.
Data set [5] in a line: AUC (0 to infinity) in Sprague-Dawley rat plasma at 50 mg/kg, po by LC/MS analysis. Format: ADME, organism-based. Also on record: dose 50 mg/kg, route oral, time infinity.
Data set [6] in a line: Cytotoxicity against human NCM460 cells assessed as reduction in cell viability measured after 24 hrs by sulforhodamine B assay. It counts as cell-based. On the technique in general: Sulforhodamine B stains cellular protein and so reports cell mass.
A short description of data set [7]: Toxicity in cyclophosphamide - induced Sprague-Dawley rat model of partial androgen deficiency assessed as swelling of seminiferous tubules at 50 to 100 mg/kg by HE staining based histopathological analysis. It counts as organism-based. The note with it: in vivo.
In data set [8] the test system is TM3. The data set can be described thus: Induction of autophagy in mouse TM3 cells assessed as increase in LC3-II protein level at 10 to 100 uM by Western blot analysis. Format: functional, cell-based. (In western blotting, separated proteins are transferred to a membrane and probed.)
For data set [9], the system named is TM3. Nature of the data set: Induction of testosterone production in mouse TM3 cells assessed as increase in 3beta-HSD protein expression level after 24 hrs by Western blot analysis. Format: functional, cell-based.
Data set [10] can be described thus: Mean residence time in Sprague-Dawley rat at 5 mg/kg, iv by LC/MS analysis. Format: ADME, organism-based. The following applies: in vivo.
Data set [11] is filed under the species Rattus norvegicus. The data set can be described thus: Anti late-onset hypogonadism activity in cyclophosphamide-induced Sprague-Dawley rat model of partial androgen deficiency assessed as induction of autophagy in Leydig cells immunohistochemical analysis. It counts as functional, organism-based.
Data set [12] relates to Rattus norvegicus. Nature of the data set: Effect on sperm production in cyclophosphamide - induced Sprague-Dawley rat model of partial androgen deficiency assessed as increase in SYCP3 protein expression at 50 to 100 mg/kg by immunohistochemical analysis. Format: functional, organism-based.
The nature of data set [13]: Toxicity in cyclophosphamide - induced Sprague-Dawley rat model of partial androgen deficiency assessed as effect on heart at 50 to 100 mg/kg by HE staining based histopathological analysis. The following applies: in vivo. Format: organism-based.
Data set [14] deals with TM3. Nature of the data set: Induction of autophagy in mouse TM3 cells assessed as increase in LC3-II/LC3-I ratio at 10 to 100 uM after 24 hrs by Western blot analysis. Format: functional, cell-based.
In data set [15] the test system is TM3. Nature of the data set: Induction of autophagy in mouse TM3 cells assessed as increase in LC3 protein level at 10 to 100 uM after 24 hrs by DAPI staining based confocal microscopic method. It counts as functional, cell-based.
The nature of data set [16]: Toxicity in cyclophosphamide - induced Sprague-Dawley rat model of partial androgen deficiency assessed as sperm viability at 100 mg/kg by semen analysis (reference value: 95.1 +/- 3.2 %). Format: organism-based. The note with it: in vivo.
Data set [17] concerns Rattus norvegicus. The data set can be described thus: Anti late-onset hypogonadism activity in cyclophosphamide-induced Sprague-Dawley rat model of partial androgen deficiency assessed as weight of testis at 100 mg/kg, po qd administered for 4 weeks (reference value: 1.47 +/- 0.13 g). It counts as functional.
For data set [18], the system named is TM3. The data set can be described thus: Induction of testosterone production in mouse TM3 cells assessed as increase in StAR protein expression level after 24 hrs by Western blot analysis. It counts as functional, cell-based.
Data set [19] can be described thus: Toxicity in cyclophosphamide - induced Sprague-Dawley rat model of partial androgen deficiency assessed as sperm motility at 100 mg/kg by semen analysis (reference value: 88.3 +/- 7.3 %). It counts as organism-based. The note with it: in vivo.
Data set [20] relates to Rattus norvegicus. The data set can be described thus: Anti late-onset hypogonadism activity in cyclophosphamide-induced Sprague-Dawley rat model of partial androgen deficiency assessed as increase in LC3 expression at 50 to 100 mg/kg by immunohistochemical analysis. It counts as functional, organism-based.

Here are results for 1 compound from ChEMBL document CHEMBL4350974, “Synthesis and biological evaluation of methylpyrimidine-fused tricyclic diterpene analogs as novel oral anti-late-onset hypogonadism agents” (Eur J Med Chem, 2019).

The term CL/F denotes the apparent clearance, not corrected for the fraction that reaches the circulation. As usually defined, the MRT is a mean duration of stay, worked out from the concentration-time curve. What is called AUC(0-inf) is the area under the concentration-time curve extrapolated to infinity. A low value points to low exposure. One may read the CC50 as the concentration at which the toxic effect on the cells reaches its halfway point.

Molecules are shown by their SMILES. Activity calls are given as the source filed them. No cut-off for these calls is given here. Some results are limits rather than exact numbers.

For the compound `CNC(=O)c1cc2c(cc1OC)[C@@]1(C)Cc3cnc(C)nc3C(C)(C)C1CC2` (mixture of isomers), in data set [1], the CL/F is 270 mL/min/kg. In addition, the Activity entry in [2] is “Non-Toxic”; in [7], “Toxic”; with TM3 [9] it was “Dose-dependent effect”; in [13], “Non-Toxic”; in data set [16], 98%; with Rattus norvegicus [17], 1.66 g. The Activity result in the data set with TM3 [18] is “Dose-dependent effect”; in data set [19], 94.6%. For the same compound, the result with Rattus norvegicus [3], in the data set with TM3 [8], in the data set listed under Rattus norvegicus [11], in the data set on Rattus norvegicus [12], in the data set on TM3 [14] and in the data set on TM3 [15] was Active. Further, the outcome in the data set on Rattus norvegicus [20] was Active. Moreover, the MRT worked out at 7.76 h in [4] and 9.92 h in data set [10]. Also, the AUC(0-inf) in data set [5] was determined as 3140 ng·h/mL. Also, the CC50 at 24 h in data set [6] is greater than 200 µM.
